Earlier results in patent publication US20240077492A1, “ARRAY-BASED PEPTIDE LIBRARIES FOR THERAPEUTIC ANTIBODY CHARACTERIZATION” (Cowper Sciences Inc., priority 2016, published 2024).

Conditions: background statement

For “Remicade: one of the most prescribed antibody therapeutics”, the “effective in fraction of the patient population” value is listed as 25%.
